Experimental data: PMC12379159 (Journal of Natural Products, 2025)
Numbering of substitutions follows the chain as printed.

How the values were obtained:
full-length human RORγ = target: T1, full-length human RORγ (Homo sapiens, UniProt P51449); assay: Full-length RORγ luciferase assay (RORE-LUC reporter); assay type: cell-based; details: HEK293 cells
T1 construct: Encodes for the full-length human RORγ; expressed in transfected cells; host or cells: HEK293
T1 sequence (P51449 1-518): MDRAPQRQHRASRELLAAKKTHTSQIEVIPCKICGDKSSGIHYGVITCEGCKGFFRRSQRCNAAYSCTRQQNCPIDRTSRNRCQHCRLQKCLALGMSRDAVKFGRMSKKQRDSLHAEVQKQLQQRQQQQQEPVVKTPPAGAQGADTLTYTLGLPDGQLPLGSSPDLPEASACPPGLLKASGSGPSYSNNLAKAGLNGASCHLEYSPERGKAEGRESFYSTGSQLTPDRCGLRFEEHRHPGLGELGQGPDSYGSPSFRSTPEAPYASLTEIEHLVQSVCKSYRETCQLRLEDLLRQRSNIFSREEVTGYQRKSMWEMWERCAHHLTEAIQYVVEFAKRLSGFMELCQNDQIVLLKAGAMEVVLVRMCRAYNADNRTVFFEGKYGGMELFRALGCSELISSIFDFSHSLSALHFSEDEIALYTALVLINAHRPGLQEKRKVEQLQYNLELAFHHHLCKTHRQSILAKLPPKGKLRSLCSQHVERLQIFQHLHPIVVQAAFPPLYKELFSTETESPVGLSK
Protocol: (§1) For luciferase assays, 8 × 10^6 HEK293 cells were seeded on 150 mm cell culture dishes and incubated for 5 h. Afterward, cells were transfected with the calcium phosphate coprecipitation method using 5 μg of the nuclear receptor (Gal4-hRORγ or full-length human RORγ), 5 μg of a luciferase reporter (pTK-MH100 × 4-LUC for Gal4-hRORγ experiments or RORE-LUC for full-length human RORγ experiments) and 3 μg eGFP-N1 (for assessing transfection efficiency) plasmid DNA and incubated overnight. […] The medium was changed the following day, and cells were further incubated for another four to 5 h before trypsin/EDTA was added to detach them from the dishes. […] RLUs were normalized to relative fluorescence units (RFU) to account for differences in cell number and transfection efficiency and then normalized to the vehicle control. Results are expressed as fold activation relative to the vehicle control.
(§2) Concentration–response data were analyzed in GraphPad Prism version 10 by three-parameter logistic nonlinear regression, with the Hill slope constrained to a theoretical value of −1.0. An IC50 value was determined only for compounds yielding a statistically reliable fit. […] In these cases, only the maximal inhibition achieved at the highest tested concentration (I max(%) at 5 μM) is reported, calculated as follows: Imax(%)=(1−Bottom/Top)×100 (“top” = baseline activity measured at the lowest concentration, “bottom” = residual activity observed at the highest concentration, corresponding to the maximal inhibitory effect).

Gal4-RORγ H479L = target: T2, Gal4-RORγ H479L (Homo sapiens, UniProt P51449, H479L); assay: Gal4-RORγ H479L mutant luciferase assay; details: 5 μM
T2 sequence (P51449 269-508 H479L limits assumed): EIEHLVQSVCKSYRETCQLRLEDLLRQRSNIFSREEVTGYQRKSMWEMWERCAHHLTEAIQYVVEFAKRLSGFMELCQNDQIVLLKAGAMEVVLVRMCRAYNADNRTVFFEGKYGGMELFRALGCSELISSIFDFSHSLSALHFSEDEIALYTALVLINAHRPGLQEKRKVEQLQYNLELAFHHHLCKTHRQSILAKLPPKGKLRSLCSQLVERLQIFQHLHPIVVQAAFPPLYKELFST
Protocol: Gal4-hRORγ H323A and H479L mutants were generated using the QuikChange Lightning Site-Directed Mutagenesis Kit according to the manufacturer’s instructions. Briefly, 10 ng template DNA (Gal4-hRORγ) was PCR-amplified with the respective mutagenic forward and reverse primers listed in Table S3, which were designed using the QuikChange Primer Design tool (https://www.agilent.com/store/primerDesignProgram.jsp). […] Two μL of the PCR product were then transformed into XL1-Blue competent E. coli according to a protocol provided by NEB. […] After centrifuging the main culture at 5691g for 10 min, the supernatant was decanted, and plasmid preparation was performed using the PureLink HiPure Plasmid Midiprep Kit according to the manufacturer’s instructions. DNA yields and purities were checked using a NanoDrop 2000c (Thermo Fisher Scientific, Waltham, MA, USA).

Gal4-hRORγ = target: T3, Gal4-hRORγ (Homo sapiens, UniProt P51449); assay: Gal4-RORγ mammalian one-hybrid luciferase assay; assay type: cell-based; details: HEK293 cells
T3 construct: Encodes for a hRORγ-LBD:Gal4-DBD fusion protein; expressed in transfected cells; host or cells: HEK293
T3 sequence (P51449 269-508 limits assumed): T2 sequence (P51449 269-508 H479L limits assumed) with L211H
Protocol: as §1, §2

[1] = test system: Il17a and Il17f (Il17a/f); assay: RT-qPCR of Il17a and Il17f in EL-4-mRORγt cells; assay type: cell-based, murine; details: indicated concentrations, 20–24 h, then 4.5-h PMA and ionomycin
Protocol: (§3) For RT-qPCR assays, 5 × 10^5 EL-4-mRORγt cells were seeded in 500 μL complete DMEM per well of a 24-well plate and treated with the vehicle control, the positive control, or the compounds of interest. After incubation for 20–24 h, cells were stimulated with Cell Activation Cocktail (PMA: 40.5 μM, ionomycin: 669.3 μM; 500X) for 4.5 h. Afterward, total RNA was isolated using the innuPREP RNA Mini Kit 2.0 according to the manufacturer’s instructions. According to the manufacturer’s instructions, 1 μg RNA was reverse-transcribed into cDNA using the High-Capacity cDNA Reverse Transcription Kit. RT-qPCR was performed using the Luna Universal qPCR Master Mix on a LightCycler 480 (Roche Diagnostics, Rotkreuz, Switzerland) according to the manufacturer’s instructions. […] Livak’s 2−ΔΔCt method was employed to determine the expression levels of RORγ target genes. This involved normalizing the target gene expression to the expression levels of the control gene 18s, followed by further normalization to the vehicle control.

[2] = test system: interleukin 23 receptor (Il23r); assay: RT-qPCR of Il23r in EL-4-mRORγt cells; assay type: cell-based, murine; details: indicated concentrations, 20–24 h, then 4.5-h PMA and ionomycin
Protocol: as §3

HEK293 cells = assay: Resazurin conversion assay in HEK293 cells; assay type: cell-based, human; details: 5 μM, 18 h
Protocol: To check the metabolic activity of cells correlating with cell viability, cells were treated with the vehicle control (0.1% DMSO), digitonin as the positive control for cytotoxicity at 20 μg/mL (HEK293 cells) or 50 μg/mL (EL-4-mRORγt cells), or the compounds of interest at 5 μM for 18 h (HEK293 cells) or 20–24 h (EL-4-mRORγt cells). The next day, the medium was carefully removed and replaced with stripped DMEM without phenol red, containing 10 μg/mL resazurin sodium salt. Cells were incubated for 5 h before RFU values were measured at λem = 590 nm using a spectrophotometer. Cell viability was calculated as follows: Cell viability(%)=100×RFU value after compound treatment/RFU value after vehicle control treatment Cytotoxicity was defined as cell viability under 70% according to the ISO 10993–5 guidelines. Cell viability <90% is explicitly stated in the respective figure.

With C=C(C)[C@@H]1CC[C@]2(C(=O)O)CC[C@]3(C)[C@H](CC[C@@H]4[C@@]5(C)C/C(=C/c6ccco6)C(=O)C(C)(C)[C@@H]5CC[C@]43C)[C@@H]12 [Compound 15, (2Z)-2-(2-furanylmethylene)-3-oxolup-20(29)-en-28-oic acid] the “Imax(%) at 5 μM, full-length RORγ luciferase assay” value (full-length human RORγ; 5 μM) was 69%, the IC50 (full-length human RORγ; 18 h treatment, up to 5 μM, read-out: IC50, full-length RORγ luciferase assay) was 900 nM and the “Activity on Gal4-RORγ H479L vs WT” value (Gal4-RORγ H479L) was “loss of activity”. For the same molecule, the “Activity in Gal4-RORγ luciferase assay (initial screen)” value (Gal4-hRORγ; 3 μM) was “new inverse agonist of RORγ”, the “Imax(%) at 5 μM, Gal4-RORγ luciferase assay” value (Gal4-hRORγ; 5 μM) was 76% and the IC50 (Gal4-hRORγ; 18 h treatment, up to 5 μM) was 400 nM. The Il17a expression [1] was “failed to affect Il17a expression levels”, the Il17f expression [1] was “slight yet concentration-dependent decrease” and the Il23r expression [2] was “concentration-dependent down-regulation”. For the same molecule, the “Cytotoxic effects, resazurin conversion assay” value (HEK293 cells) was “no cytotoxic effects”.
